Paper PMC5298231, “The Malaria Parasite's Lactate Transporter PfFNT Is the Target of Antiplasmodial Compounds Identified in Whole Cell Phenotypic Screens” (PLoS Pathogens, 2017)
Peptide text beside a SMILES is read from it.

Tested on: erythrocytes infected with 3D7 trophozoites
Assay type: cell-based, Plasmodium falciparum
Conditions: sheet Ratio; for Ratio of metabolite abundance, Exp1_1hr: Exp1, 1hr; for Ratio of metabolite abundance, Exp1_3hr: Exp1, 3hr; for Ratio of metabolite abundance, Exp1_6hr: Exp1, 6hr; for Ratio of metabolite abundance, Exp2_1hr: Exp2, 1hr; for Ratio of metabolite abundance, Exp2_3hr: Exp2, 3hr; for Ratio of metabolite abundance, Exp2_6hr: Exp2, 6hr; for Ratio of metabolite abundance, Exp3_1hr: Exp3, 1hr; for Ratio of metabolite abundance, Exp3_3hr: Exp3, 3hr; for Ratio of metabolite abundance, Exp3_6hr: Exp3, 6hr

Row | Structure (SMILES) | Ratio of metabolite abundance, Exp1_1hr | Ratio of metabolite abundance, Exp1_3hr | Ratio of metabolite abundance, Exp1_6hr | Ratio of metabolite abundance, Exp2_1hr | Ratio of metabolite abundance, Exp2_3hr | Ratio of metabolite abundance, Exp2_6hr | Ratio of metabolite abundance, Exp3_1hr | Ratio of metabolite abundance, Exp3_3hr | Ratio of metabolite abundance, Exp3_6hr
1 | O=C(CO)COP(=O)(O)O [Glycerone phosphate] | 2.2 | 2.096 | 0.8912 | 1.254 | 1.043 | 0.7007 | 1.243 | 1.057 | 0.7275
2 | CC(C)C[C@H](NC(=O)[C@@H](N)Cc1cnc[nH]1)C(=O)N[C@@H](CC(=O)O)C(=O)O [HLD] (H-His-Leu-Asp-OH) | 0.6785 | 0.3938 | 1.496 | 0.9181 | 0.5663 | 1.359 | 0.7775 | 0.6588 | 1.57
3 | CC(C)[C@H](NC(=O)[C@@H](N)Cc1c[nH]cn1)C(=O)N[C@@H](CC(=O)O)C(=O)N[C@@H](CC(=O)O)C(=O)O [HVDD] (H-HVDD-OH) | 0.5307 | 0.3298 | 0.7281 | 0.7593 | 0.3961 | 1.162 | 0.6174 | 0.4236 | 1.2463
4 | O=C(O)[C@@H]1CC(O)CN1 (stereo partly drawn) [Hydroxy-L-proline] | 1.2334 | 0.9688 | 0.6326 | 1.182 | 1.17 | 1.132 | 1.1402 | 1.1046 | 1.082
5 | O=c1[nH]cnc2c1ncn2[C@@H]1O[C@H](COP(=O)(O)OP(=O)(O)O)[C@@H](O)[C@H]1O [IDP] | 0.8853 | 1.384 | 1.314 | 0.5363 | 0.6148 | 0.824 | 1.461 | 1.458 | 1.561
6 | CC(C)C[C@H](N)C(=O)N[C@@H](CC(=O)O)C(=O)O [LD] (H-Leu-Asp-OH) | 1.295 | 0.7458 | 0.9103 | 1.486 | 1.077 | 1.185 | 1.151 | 1.268 | 1.201
7 | CC(O)C(=O)O (stereo not drawn) [Lactate] | 8.023 | 5.339 | 5.015 | 5.913 | 7.877 | 8.247 | 2.842 | 5.6661 | 4.424
8 | CC(=O)N[C@@H](CCC(=O)O)C(=O)O [N-Acetyl-glutamate] | 1.252 | 0.8243 | 0.4492 | 1.417 | 0.7877 | 0.6113 | 0.5549 | 0.2844 | 0.3771
9 | NC(=O)N[C@@H](CC(=O)O)C(=O)O [N-Carbamoyl-L-aspartate] | 0.3523 | 0.4866 | 0.4355 | 0.4532 | 0.2641 | 0.4319 | 0.3568 | 0.3426 | 0.2976
10 | NC(=O)c1ccc[n+]([C@@H]2O[C@H](COP(=O)([O-])OP(=O)(O)OC[C@H]3O[C@@H](n4cnc5c(N)ncnc54)[C@H](O)[C@@H]3O)[C@@H](O)[C@H]2O)c1 [NAD+] | 1.033 | 0.9084 | 1.09 | 0.9571 | 1.088 | 1.117 | 1.081 | 1.082 | 1.084
11 | NC(=O)C1=CN([C@@H]2O[C@H](COP(=O)(O)OP(=O)(O)OC[C@H]3O[C@@H](n4cnc5c(N)ncnc54)[C@H](O)[C@@H]3O)[C@@H](O)[C@H]2O)C=CC1 [NADH] | 0.4095 | 0.2777 | 0.1491 | 0.4801 | 0.5784 | 0.1509 | 0.301 | 0.1742 | 0.1364
12 | NC(=O)c1ccc[n+]([C@@H]2O[C@H](COP(=O)([O-])OP(=O)(O)OC[C@H]3O[C@@H](n4cnc5c(N)ncnc54)[C@H](OP(=O)(O)O)[C@@H]3O)[C@@H](O)[C@H]2O)c1 [NADP+] | 0.7131 | 0.6937 | 0.7662 | 1.042 | 0.9729 | 0.8073 | 0.7811 | 0.7388 | 0.8166
13 | O=C(O)c1cc(=O)[nH]c(=O)[nH]1 [Orotate] | 0.5025 | 0.4692 | 0.3315 | 0.4622 | 0.4131 | 0.4313 | 0.3435 | 0.2448 | 0.2332
14 | C[C@H](NC(=O)[C@@H]1CCCN1)C(=O)N[C@@H](CCC(=O)O)C(=O)N[C@@H](Cc1ccccc1)C(=O)O [PAEF] (H-PAEF-OH) | 0.6152 | 0.1924 | 1.448 | 0.9598 | 0.5962 | 1.961 | 0.6833 | 0.575 | 1.883
